Tests used:
[1] = molecular target: T1, c-Kit (Homo sapiens, UniProt P10721); test: KinaseProfiler kinase activity assay; assay type: biochemical; set-up: purchased EMD Millipore Corp. (KinaseProfiler service)
Method: (§6) KinaseProfiler™ assays (EMD Millipore Corp. Billerica, Mass., USA) are radioligand binding assays with purified or partially-purified human kinases. Most of the KinaseProfiler™ assays are conducted in 20 mM MOPS, 1 mM EDTA, 0.01% Brij-35, 5% Glycerol, 0.1% b-mercaptoethanol, 1 mg/mL BSA. The assay involves the transfer of ^32P from γ-^32P-ATP to the target peptide, followed by washing and trapping of the labeled peptide on a filter. The concentration of γ-^32P-ATP used was at the established Km for ATP.

[2] = system: Ba/F3 cells expressing the non-mutated Bcr-Abl1 kinase; test: WST-1 cell viability, Ba/F3 cells expressing Bcr-Abl1; assay type: cell-based; conditions: Mus musculus, BaF3, 48 hours, serum free
Method: (§1) Ba/F3 cells either stably overexpressing Bcr-Abl1 (A) or the mutant Bcr-Abl1 T315I (B) were cultured overnight in serum free RPMI-1640 media supplemented with 2 mM glutamine, 100 U/mL penicillin and 100 μg/mL streptomycin (Sigma-Aldrich). The following day, cells were plated in a 96-well plate with each well containing 2000 cells in a volume of 100 μl serum free RMPI media. […] The 96 well plates were incubated for 48 hours, and cell viability was measured in a WST-1 assay (Roche). Briefly, 5 μl WST-1 solution was added to each well and the 96-well plate was incubated for another 2 hours. The readout was performed in an ELSA reader at 480 nm. (measure)/620 nm (reference). Subsequent data analysis was performed with Microsoft Excel 2003 and GraphPad Prism 4.0.

[3] = system: plasma protein; test: Plasma protein binding; assay type: in vitro ADME; conditions: in animals and humans
[4] = system: Ba/F3 cells (WT, FLT3 WT, FLT3-ITD, D835Y); test: Annexin V-PI apoptosis/cell death assay, four Ba/F3 cell lines; assay type: cell-based, Murine
Text: Murine pro-B lymphocyte line Ba/F3 wild type (Ba/F3 WT), and Ba/F3 lines stably transduced with expression vectors that encoded wild-type human FLT3 (Ba/F3 FLT3 WT cells) or human FLT3 containing an ITD mutation (Ba/F3-ITD cells) or D835Y (Ba/F3 D835Y cells) point mutations, which lead to constitutively functional activation of the protein, were obtained from Bjørn Tore Gjertsen (Department of Clinical Science, Hematology Section, University of Bergen, Bergen, Norway). Ba/F3 WT, Ba/F3 FLT3 WT and Ba/F3 835Y cells were maintained in RPMI-1640 medium, containing 10% fetal calf serum (FCS, HyClone, Logan, UT), 2 mM L-glutamine and 50 U/mL penicillin-streptomycin (Sigma-Aldrich, Inc, St Louis, Mo., USA), and 10% WEHI-3B conditioned medium as a source of murine interleukin-3 (mIL-3). […]
Quantification of apoptotic and necrotic cells was determined by measuring externalization of phosphatidylserine with annexin V, conjugated to Alexa® Fluor 647 (Invitrogen, Molecular Probes, OR, USA) and using propidium iodide (PI; Sigma-Aldrich) as a dead-cell counterstain. […] After drug treatment cells were stained according the manufacturer's protocol, and subsequently analysed on an Accuri C6 flow cytometer (Becton Dickinson Immunocytometry Systems, San Jose, Calif., USA). […] The percent viable cells are expressed as percentage of untreated cells, performed in a single experiment.

[5] = molecular target: Abl(Q252H) (Homo sapiens, UniProt P00519, Q252H); test: KinaseProfiler kinase activity assay; assay type: biochemical; set-up: purchased EMD Millipore Corp. (KinaseProfiler service); conditions: ATP at Km
Text: (§2) Detailed assay methodologies can be found in the relevant references cited herein, or in the KinaseProfiler Service Assay Protocols (v54, 2011) available from EMD Millipore (www.emdmillipore.com), or from the KinomeScan website (www.kinomescan.com), as appropriate. (For a more detailed description of KINOMEscan's assay technology, see: Fabian et al. A small molecule-kinase interaction map for clinical kinase inhibitors. Nat. Biotechnol. 23, 329-336 (2005)). A summary is provided below.
(§3) KinaseProfiler™ assays (EMD Millipore Corp. Billerica, Mass., USA) are […] with purified or partially-purified human kinases. Most of the KinaseProfiler™ assays are conducted in 20 mM MOPS, 1 mM EDTA, 0.01% Brij-35, 5% Glycerol, 0.1% b-mercaptoethanol, 1 mg/mL BSA. The assay involves the transfer of ^32P from γ-^32P-ATP to the target peptide, followed by washing and trapping of the labeled peptide on a filter. The concentration of γ-^32P-ATP used was at the established Km for ATP.

[6] = molecular target: Tyro3 (Homo sapiens, UniProt Q06418); test: KinaseProfiler kinase activity assay; assay type: biochemical; set-up: purchased EMD Millipore Corp. (KinaseProfiler service); conditions: ATP at Km
Chain of Tyro3 (Q06418 41-890): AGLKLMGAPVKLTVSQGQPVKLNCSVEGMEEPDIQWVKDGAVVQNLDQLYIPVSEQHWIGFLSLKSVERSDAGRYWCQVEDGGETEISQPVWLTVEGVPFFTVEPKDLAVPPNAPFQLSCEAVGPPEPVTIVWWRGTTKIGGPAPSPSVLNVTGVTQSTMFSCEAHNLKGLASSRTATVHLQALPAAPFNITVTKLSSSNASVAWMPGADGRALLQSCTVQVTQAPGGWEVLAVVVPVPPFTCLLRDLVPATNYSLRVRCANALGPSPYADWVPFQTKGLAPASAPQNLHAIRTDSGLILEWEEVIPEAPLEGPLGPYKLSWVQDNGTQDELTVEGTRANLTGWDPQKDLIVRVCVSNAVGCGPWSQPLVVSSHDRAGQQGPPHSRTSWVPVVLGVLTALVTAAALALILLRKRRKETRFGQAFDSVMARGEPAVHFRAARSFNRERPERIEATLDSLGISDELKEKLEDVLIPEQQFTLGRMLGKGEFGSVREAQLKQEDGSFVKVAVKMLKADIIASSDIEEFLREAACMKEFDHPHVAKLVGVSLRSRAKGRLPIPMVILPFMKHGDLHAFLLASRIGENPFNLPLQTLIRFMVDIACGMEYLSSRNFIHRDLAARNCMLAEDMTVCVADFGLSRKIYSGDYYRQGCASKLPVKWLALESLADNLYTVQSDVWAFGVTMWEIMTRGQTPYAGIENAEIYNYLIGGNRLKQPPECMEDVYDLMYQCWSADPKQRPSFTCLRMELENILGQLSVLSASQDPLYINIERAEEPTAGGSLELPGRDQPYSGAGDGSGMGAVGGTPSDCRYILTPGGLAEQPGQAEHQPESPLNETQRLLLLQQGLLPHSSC
Text: as §2, §3

[7] = molecular target: T2, Abl (Homo sapiens, UniProt P00519); test: biochemical
Text: as §2
(§4) KinomeScan™ assays (DiscoveRx Corporation, San Diego, Calif., USA) are active-site-directed competition binding assays. […] The amount of kinase captured in test versus control samples is determined by using a qPCR method that detects the associated DNA label on each kinase molecule. Dissociation constants (Kd) for test compound-kinase interactions are calculated by measuring the amount of kinase captured on the solid support as a function of the test compound concentration.

[8] = molecular target: T1, c-Kit; test: biochemical
Text: as §2, §4

[9] = system: Flt3 mutations D835H, D835Y, K663Q, and A829P; test: Inhibition of Flt3 mutations (biochemical assays, format not stated)
Text: (§5) A summary is provided below.

[10] = molecular target: T3, c-Kit (V654A) (Homo sapiens, UniProt P10721, V654A); test: KinaseProfiler kinase activity assay; assay type: biochemical
T3 construct: purchased EMD Millipore Corp. (KinaseProfiler service)
T3 sequence (P10721 26-976 V654A): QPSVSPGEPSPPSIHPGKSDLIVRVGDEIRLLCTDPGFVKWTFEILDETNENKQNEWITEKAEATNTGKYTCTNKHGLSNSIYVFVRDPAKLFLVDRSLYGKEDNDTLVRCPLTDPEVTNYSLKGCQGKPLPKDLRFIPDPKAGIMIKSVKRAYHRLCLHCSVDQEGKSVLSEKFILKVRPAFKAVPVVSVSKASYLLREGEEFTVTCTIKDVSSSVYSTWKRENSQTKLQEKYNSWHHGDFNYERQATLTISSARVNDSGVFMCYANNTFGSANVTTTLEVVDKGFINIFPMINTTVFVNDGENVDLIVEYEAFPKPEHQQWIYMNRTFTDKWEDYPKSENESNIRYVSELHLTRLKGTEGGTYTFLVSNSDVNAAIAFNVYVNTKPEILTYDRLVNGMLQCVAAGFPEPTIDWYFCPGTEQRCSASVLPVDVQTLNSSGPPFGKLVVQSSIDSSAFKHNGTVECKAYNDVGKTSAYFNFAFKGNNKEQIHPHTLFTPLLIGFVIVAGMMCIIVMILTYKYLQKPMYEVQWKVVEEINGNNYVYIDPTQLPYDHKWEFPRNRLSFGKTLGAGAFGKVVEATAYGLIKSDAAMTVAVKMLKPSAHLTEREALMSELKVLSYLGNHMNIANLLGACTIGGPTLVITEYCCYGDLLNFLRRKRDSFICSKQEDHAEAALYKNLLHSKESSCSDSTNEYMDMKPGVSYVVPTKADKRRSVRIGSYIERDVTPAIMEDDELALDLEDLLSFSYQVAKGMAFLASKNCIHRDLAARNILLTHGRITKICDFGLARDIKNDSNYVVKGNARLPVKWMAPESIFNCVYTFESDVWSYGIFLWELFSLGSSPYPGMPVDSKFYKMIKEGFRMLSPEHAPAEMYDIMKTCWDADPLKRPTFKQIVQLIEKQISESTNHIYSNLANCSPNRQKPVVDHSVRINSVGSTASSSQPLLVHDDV
Method: as §6

[11] = molecular target: T2, Abl; test: KinaseProfiler kinase activity assay; assay type: biochemical; conditions: Abl wild-type; ATP at Km
Text: as §2, §3

[12] = system: Ba/F3 cells expressing T315I mutated Bcr-Abl1 fusion protein; test: WST-1 cell viability, Ba/F3 cells expressing Bcr-Abl1 T315I; assay type: cell-based; conditions: Mus musculus, BaF3, 48 hours, serum free, read-out: IB50 cell viability
Method: as §1

[13] = molecular target: T4, TEK(Y897S) (Homo sapiens, UniProt Q02763, Y897S); test: KinaseProfiler kinase activity assay; assay type: biochemical; conditions: ATP at Km
T4 construct: purchased EMD Millipore Corp. (KinaseProfiler service)
T4 sequence (Q02763 23-1124 Y897S): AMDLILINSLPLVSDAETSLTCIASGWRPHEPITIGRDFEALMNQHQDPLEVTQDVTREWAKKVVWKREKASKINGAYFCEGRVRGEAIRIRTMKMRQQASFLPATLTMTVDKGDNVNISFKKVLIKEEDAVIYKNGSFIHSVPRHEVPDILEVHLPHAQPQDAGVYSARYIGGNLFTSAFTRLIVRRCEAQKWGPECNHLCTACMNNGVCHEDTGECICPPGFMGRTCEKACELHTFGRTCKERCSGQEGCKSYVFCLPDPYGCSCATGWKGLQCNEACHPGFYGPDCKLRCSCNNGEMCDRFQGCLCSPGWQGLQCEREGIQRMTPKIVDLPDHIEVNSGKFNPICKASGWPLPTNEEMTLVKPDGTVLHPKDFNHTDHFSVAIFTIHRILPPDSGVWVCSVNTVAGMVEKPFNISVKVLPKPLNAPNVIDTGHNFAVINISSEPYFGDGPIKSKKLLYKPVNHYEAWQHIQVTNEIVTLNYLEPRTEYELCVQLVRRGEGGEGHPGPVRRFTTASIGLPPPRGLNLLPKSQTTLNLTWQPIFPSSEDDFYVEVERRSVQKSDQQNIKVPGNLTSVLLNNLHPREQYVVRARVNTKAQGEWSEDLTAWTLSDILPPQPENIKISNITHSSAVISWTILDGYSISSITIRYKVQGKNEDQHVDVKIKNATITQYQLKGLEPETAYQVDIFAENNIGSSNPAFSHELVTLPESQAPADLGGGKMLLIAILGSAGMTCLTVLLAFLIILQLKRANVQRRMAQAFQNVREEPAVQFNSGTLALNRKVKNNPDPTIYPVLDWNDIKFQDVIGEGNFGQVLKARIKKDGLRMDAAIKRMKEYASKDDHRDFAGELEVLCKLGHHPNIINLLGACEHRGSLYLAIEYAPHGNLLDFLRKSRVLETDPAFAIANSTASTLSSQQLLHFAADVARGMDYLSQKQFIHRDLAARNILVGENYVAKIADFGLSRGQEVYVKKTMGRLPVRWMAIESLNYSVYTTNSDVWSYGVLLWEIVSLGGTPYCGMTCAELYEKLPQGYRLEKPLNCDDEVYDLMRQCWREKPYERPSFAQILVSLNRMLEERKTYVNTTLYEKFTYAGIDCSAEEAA
Text: as §5

[14] = molecular target: T5, TEK(R849W) (Homo sapiens, UniProt Q02763, R849W); test: KinaseProfiler kinase activity assay; assay type: biochemical; conditions: ATP at Km
T5 construct: purchased EMD Millipore Corp. (KinaseProfiler service)
T5 sequence (Q02763 23-1124 R849W): as the sequence (Q02763 23-1124 Y897S) above, with R827W, S875Y counted along it
Text: as §5

T1 sequence (P10721 26-976): as the sequence (P10721 26-976 V654A) above, with A629V counted along it

Nc1nc(Nc2ccc3c(c2)CC[C@@H](N2CCCC2)CC3)nn1-c1cc2c(nn1)-c1ccccc1CCC2 [Compound A, 1-(6,7-dihydro-5H-benzo[6,7]cyclohepta[1,2-c]pyridazine-3-yl)-N^3-(7-(S)-(pyrrolidin-1-yl)-6,7,8,9-tetrahydro-5H-benzo[7]annulene-2-yl)-1H-1,2,4-triazole-3,5-diamine] was tested, and the IC50 [1] was 1280 nM, the IC50 [2] was 796 nM and the “binding to plasma protein” value [3] was over 99%. For the same molecule, the therapeutic window ([4]; investigated Ba/F3 cell lines, 48 hours) was 0.5 to 3 µM, the “induction of apoptosis at higher doses” value ([4]; ≧3 μM, all cell lines regardless of FLT3 status) was “massive induction of apoptosis” and the IC50 [5] was 16 nM. It also gave an IC50 [6] of 413 nM, a Kd [7] of 52 nM and a Kd [8] of 104 nM. The “inhibition range, Flt3 mutations” value [9] was 8 to 29 nM, the IC50 [10] was 286 nM and the IC50 [11] was 51 nM. For the same molecule, the IC50 [12] was 570 nM, the IC50 [13] was 13 nM and the IC50 [14] was 22 nM.
